Series [1] is described as follows: solubility of ITI-007 free base in solvents. The class given is physicochemical.
The nature of series [2]: preliminary screen of dispersions by XRPD and appearance. The following applies: XRPD, as generated by lyophilization; ITI-007 free base/excipient. The class given is physicochemical.
Procedure: X-ray powder diffraction (XRPD): The X-ray powder diffraction studies are performed using a PANalytical X'Pert PRO MPD diffractometer using an incident beam of Cu radiation produced using an Optix long, fine-focus source. An elliptically graded multilayer mirror is used to focus Cu Kα X-ray radiation through the specimen and onto the detector. Prior to analysis, a silicon specimen is analyzed to verify the observed position of the Si (111) peak (consistent with the NIST-certified position, NIST SM 640e). A specimen of the sample is sandwiched between 3-micron thick films and analyzed in transmission geometry. A beam-stop, short antiscatter extension, and antiscatter knife edge is used to minimize the background generated by the air. Soller slits for the incident and diffracted beams are used to minimize broadening from axial divergence. Diffraction patterns are collected using a scanning position-sensitive detector (X'Celerator) located 240 mm from the specimen.
Series [3] is described as follows: mDSC glass transition of dispersions. The series is classed as physicochemical. Particulars: single glass transition above 75° C., Yes/No.
Series [4] in a line: chemical stability of ITI-007 by HPLC over the seven-day study. The class given is physicochemical. Particulars: 7 days at 40° C./75% RH, normalized to content before the study.
In series [5] the target is H1 histaminergic receptors (Homo sapiens, UniProt P35367). Particulars: cited from earlier work.
Sequence of H1 histaminergic receptors (P35367 whole entry): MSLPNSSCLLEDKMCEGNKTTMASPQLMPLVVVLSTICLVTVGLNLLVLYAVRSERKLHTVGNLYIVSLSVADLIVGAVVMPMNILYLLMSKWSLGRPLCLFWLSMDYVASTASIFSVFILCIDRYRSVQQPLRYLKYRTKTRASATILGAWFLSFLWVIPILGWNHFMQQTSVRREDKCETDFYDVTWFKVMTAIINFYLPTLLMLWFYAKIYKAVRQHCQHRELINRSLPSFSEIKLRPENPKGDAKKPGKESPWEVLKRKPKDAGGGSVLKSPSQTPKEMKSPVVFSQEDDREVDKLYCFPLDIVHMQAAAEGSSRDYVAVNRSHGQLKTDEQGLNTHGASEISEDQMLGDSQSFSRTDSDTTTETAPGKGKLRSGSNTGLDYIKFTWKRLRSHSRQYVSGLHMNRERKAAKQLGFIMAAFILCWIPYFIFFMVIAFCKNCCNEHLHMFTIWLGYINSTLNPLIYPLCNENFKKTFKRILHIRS
A further series deals with T1, 5-HT2C receptors (Homo sapiens, UniProt P28335).
T1 sequence (P28335 33-458): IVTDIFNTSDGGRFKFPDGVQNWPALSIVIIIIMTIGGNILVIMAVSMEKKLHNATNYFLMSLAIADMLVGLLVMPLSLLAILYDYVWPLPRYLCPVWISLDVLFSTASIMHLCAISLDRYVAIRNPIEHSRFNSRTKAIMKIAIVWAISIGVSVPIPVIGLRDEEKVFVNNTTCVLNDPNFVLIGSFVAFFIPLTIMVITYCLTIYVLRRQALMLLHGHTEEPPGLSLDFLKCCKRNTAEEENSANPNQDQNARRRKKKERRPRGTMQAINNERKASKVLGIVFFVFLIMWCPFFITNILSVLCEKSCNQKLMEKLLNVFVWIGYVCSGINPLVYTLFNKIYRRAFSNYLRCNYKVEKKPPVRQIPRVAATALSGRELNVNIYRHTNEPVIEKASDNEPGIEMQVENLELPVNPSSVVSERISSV
The following applies: cited from earlier work.

The test system of a further series is muscarinic receptors. The following applies: cited from earlier work.
For series [6] the following is noted: cited from earlier work.
Setting [7] is: salt of U.S. Pat. No. 7,183,282.

SMILES strings stand for the structures. Values after ≈ are worked out from the molar mass of the structure shown. Where only a bound is given, the exact number is not on record here.

For orientation: solubility means the concentration that dissolves in the medium under given conditions.

In the case of `CN1CCN2c3c(cccc31)[C@@H]1CN(CCCC(=O)c3ccc(F)cc3)CC[C@@H]12` [ITI-007, 1-(4-fluoro-phenyl)-4-((6bR,10aS)-3-methyl-2,3,6b,9,10,10a-hexahydro-1H,7H-pyrido[3′,4′:4,5]pyrrolo[1,2,3-de]quinoxalin-8-yl)-butan-1-one], the solubility in series [1] (2,2,2-trifluoroethanol (TFE), organic solvent or mixture) is above 50 mg/mL; in series [1] (acetone, organic solvent or mixture), above 50 mg/mL; in series [1] (dioxane, organic solvent or mixture), above 50 mg/mL; in series [1] (ethanol, organic solvent or mixture), above 50 mg/mL; in series [1] (methanol, organic solvent or mixture), above 50 mg/mL; in series [1] (tert-butanol/water mixtures, aqueous with cosolvent or surfactant or cyclodextrin) it was 5 to 50 mg/mL (≈ 12.7 to 127 mM). The stability in solution result in series [1] (solutions in TFE) is on record as “rapidly discolor due to decomposition of the active”. The “X-ray Amorphous Solids?” value in series [2] is listed as “No”. Moreover, in series [3], the “Tg > 75° C.” value is given as “No”. Also, the “% ITI-007 change by HPLC” value in series [4] is listed as −5.97%. Further, the binding result (in series [5]; at 5-HT2C receptors; in the series with muscarinic receptors) was “negligible binding” in each case. Also, the solubility in water entry in series [6] (free base form) is on record as “poor solubility in water”.
On to `CN1CCN2c3c(cccc31)C1CN(CCCC(=O)c3ccc(F)cc3)CCC12.Cl` (stereo not shown) [hydrochloride salt form of ITI-007], for which, in series [6] (setting [7]), the hygroscopicity entry was “hygroscopic” and the stability result is listed as “poor stability”.
